Assay results: patent US8846928B2 (Portola Pharmaceuticals, Inc., priority 2010, dated 2014)

target: T1, full length active recombinant SYK enzyme (Homo sapiens, UniProt P43405); experiment: Inhibition of Syk tyrosine phosphorylation activity (LANCE TR-FRET kinase assay); format: biochemical
T1 construct: full length active recombinant SYK enzyme (Millipore, Calif.); purchased Millipore
Description: Inhibition of Syk Tyrosine Phosphorylation Activity
Potency of candidate molecules for inhibiting Syk tyrosine phosphorylation activity is assessed by measuring the ability of a test compound to inhibit Syk-mediated tyrosine phosphorylation of a Syk-specific substrate.
SYK tyrosine phosphorylation activity is measured using the LANCE™ Technology developed by Perkin Elmer Life and Analytical Sciences (Boston, Mass.). LANCE™ refers to homogeneous time resolved fluorometry applications using techniques such as time-resolved fluorescence resonance energy transfer assay (TR-FRET) (see generally for procedures in Perkin Elmer Application Note—How to Optimize a Tyrosine Kinase Assay Using Time Resolved Fluorescence-Based LANCE Detection, wwww.perkinelmer.com/lifesciences). The assay principle involves detection of a phosphorylated substrate using energy transfer from a phosphospecific europium-labeled antibody to streptavidin-allophycocyanin as an acceptor.
To test the ability of candidate molecules to inhibit SYK tyrosine phosphorylation activity, molecules are reconstituted in 30% DMSO and serially diluted 1:3 with the final dilution containing DMSO in the absence of the candidate molecule. The final DMSO concentration in the assay is 3%. Kinase assays are performed as a two part reaction. […] The second reaction involves termination of the kinase reaction and the simultaneous addition of the detection reagents—europium-labeled anti-phosphotyrosine reagent (Eu-W1024-PY100, Perkin Elmer, Boston, Mass.) and Streptavidin-Allophycocyanin detection reagent (SA-APC, Prozyme, Calif.). The kinase reaction is performed in a black U-bottom 96-well microtitre plate. The final reaction volume is 50 μL and contains a final concentration of 1 nM active SYK enzyme, 550 nM SYK-substrate, and 100 μM ATP diluted in a buffer containing 50 mM Tris pH 7.5, 5 mM MgCl2, and 1 mM DTT. The reaction is allowed to proceed for 1 hour at room temperature. The quench buffer contains 100 mM Tris pH 7.5, 300 mM NaCl2, 20 mM EDTA, 0.02% Brij35, and 0.5% BSA. The detection reagents are added to the reaction mixture at the following dilutions-1:500 for Eu-W1024-PY100 and 1:250 for SA-APC. The kinase reaction is terminated by the addition of 50 μL quench buffer containing the detection reagents. The detection is allowed to proceed for 1 hr at room temperature. Detection of the phosphorylated substrate in the absence and presence of inhibitors is measured in the TR-FRET instrument, Analyst HT (Molecular Probes, Sunnyvale, Calif.) and the condition for measurements are set up using CriterionHost Release 2.0 (Molecular Probes, Sunnyvale, Calif.). The settings used are a follows: excitation 360 nm, emission 665-7.5 nm, beam splitter 350 nm 50/50, flash 100 pulses, delay 60 us, integration 400 us, z-height 2 mm. […] IC50s were derived by non-linear regression analysis. […]

Row | SMILES | IC50 [nM]
1 | NC(=O)c1cc(F)c(NC[C@@H](N)CC(F)F)nc1Nc1cncc(F)c1 [Example 382, (S)-6-(2-amino-4,4-difluorobutylamino)-5-fluoro-2-(5-fluoropyridin-3-ylamino)nicotinamide] | 100 to 1000
2 | CC(C)C[C@@H](Nc1nc(Nc2ccc3ncccc3c2)c(C(N)=O)cc1C#N)C(N)=O [Example 124, (R)-6-(1-amino-4-methyl-1-oxopentan-2-ylamino)-2-(quinolin-6-ylamino)-5-cyanonicotinamide] | 10 to 100
3 | Cc1ccc(Nc2nc(NC[C@@H](N)CC(F)F)c(F)cc2C(N)=O)cc1 [Example 381, (S)-2-(p-toluidino)-6-(2-amino-4,4-difluorobutylamino)-5-fluoronicotinamide] | 100 to 1000
4 | NC(=O)c1cc(F)c(N[C@@H]2CCCC[C@@H]2N)nc1Nc1ccnc(-n2cccn2)c1 [Example 190, 2-(2-(1H-pyrazol-1-yl)pyridin-4-ylamino)-6-((1R,2S)-2-aminocyclohexylamino)-5-fluoronicotinamide] | 10 to 100
5 | Cc1cccc(Nc2nc(N[C@H](C)C(N)=O)ccc2C(N)=O)c1 [Example 104, (R)-2-(m-toluidino)-6-(1-amino-1-oxopropan-2-ylamino)nicotinamide] | 100 to 1000
6 | Cc1cc(Nc2cc(N[C@@H](C(N)=O)c3ccccc3)ccc2C(N)=O)sn1 [Example 18, (R)-4-(2-amino-2-oxo-1-phenylethylamino)-2-(3-methylisothiazol-5-ylamino)benzamide] | 100 to 1000
7 | CCn1ccc2c(Nc3nc(N[C@@H]4CCCC(F)(F)[C@@H]4N)c(F)cc3C(N)=O)cccc21 [Example 390, 6-((1R,2R)-2-amino-3,3-difluorocyclohexylamino)-2-(1-ethyl-1H-indol-4-ylamino)-5-fluoronicotinamide] | 10 to 100
8 | CN1CCC(c2ccc(Nc3nc(N[C@@H]4CCCC[C@@H]4N)c(F)cc3C(N)=O)cc2)CC1 [Example 309, 6-((1R,2S)-2-aminocyclohexylamino)-5-fluoro-2-(4-(1-methylpiperidin-4-yl)phenylamino)nicotinamide] | 10 to 100
9 | NC(=O)c1ccc(N[C@@H]2CCCC[C@@H]2N)nc1Nc1ccc2c(c1)OCCO2 [Example 254, 6-((1R,2S)-2-aminocyclohexylamino)-2-(2,3-dihydrobenzo[b][1,4]dioxin-6-ylamino)nicotinamide] | 1 to 10
10 | Cc1cc(C)cc(Nc2nc(N[C@@H]3CCCC[C@@H]3N)c(F)cc2C(N)=O)c1 [Example 320, 6-((1R,2S)-2-aminocyclohexylamino)-2-(3,5-dimethylphenylamino)-5-fluoronicotinamide] | 1 to 10

Next, values leading:

Row | IC50 [nM] | SMILES
11 | 1 to 10 | N#Cc1cc(C(N)=O)c(Nc2cccc(-n3nccn3)c2)nc1N[C@@H]1CCCC[C@@H]1N [Example 106, 2-(3-(2H-1,2,3-triazol-2-yl)phenylamino)-6-((1R,2S)-2-aminocyclohexylamino)-5-cyanonicotinamide]
12 | 1 to 10 | Cc1cncc(Nc2nc(N[C@@H]3CCCC[C@@H]3N)ccc2C(N)=O)c1 [Example 256]
13 | 1 to 10 | NC(=O)c1ccc(N[C@@H]2CCCC[C@@H]2N)nc1Nc1cnn2ccccc12 [Example 419, 6-((1R,2S)-2-aminocyclohexylamino)-2-(pyrazolo[1,5-a]pyridin-3-ylamino)nicotinamide]
14 | 1 to 10 | NC(=O)c1cc(F)c(N[C@@H]2CCCC[C@@H]2N)nc1Nc1cccc(-c2ccncn2)c1 [Example 56, 6-((1R,2S)-2-aminocyclohexylamino)-5-fluoro-2-(3-(pyrimidin-4-yl)phenylamino)nicotinamide]
15 | 1 to 10 | CC(C)C[C@H](CN)Nc1nc(Nc2ccc3ncccc3c2)c(C(N)=O)cc1C#N [Example 122, (R)-6-(1-amino-4-methylpentan-2-ylamino)-5-cyano-2-(quinolin-6-ylamino)nicotinamide]
16 | 1 to 10 | Cn1ncc2cc(Nc3nc(N[C@@H]4CCCC[C@@H]4N)c(F)cc3C(N)=O)ccc21 [Example 139, 2-(1-methyl-1H-indazol-5-ylamino)-6-((1R,2S)-2-aminocyclohexylamino)-5-fluoronicotinamide]
